Where two headings read alike, the source gives them in different places.
Molecular target: T1, human TSHR (Homo sapiens, UniProt P16473)
T1 construct: expressed in transfected cells
Assay: Homogeneous Time Resolved Fluorescence (HTRF) cAMP assay, TSHR cell line
Type: cell-based
Details: for AC50: HTRF cAMP, TSHR cell line, 30 minute incubation; for Maximum Activity compared to TSH: 100% activity = response of 30 mU/ml TSH, 0% = DMSO control, in %; for Emax: read-out: Maximum Activity compared to TSH, 100% activity = response of 30 mU/ml TSH, 0% = DMSO control; call rule not given here
From the text: Generation of Stable Cell-Lines Expressing TSHR, LHCGR or FSHR.
cDNA for human TSHR was amplified by PCR from hTSHR-pSVL (1) and inserted into the pcDNA3.1(−)/hygromycin vector using restriction sites XhoI and BamHI. cDNA for human LHCGR was amplified by PCR from hLHR-pGS5 (2) and was inserted into the pcDNA3.1(+)/hygromycin vector using restriction sites BamHI and XhoI. The FSHR cDNA in pcDNA3.1 was obtained from the Missouri S&T cDNA Resource Center (www.cDNA.org) and was subcloned into the pcDNA3.1(−)/hygromycin vector. Constructs were confirmed by sequencing (MWG Biotech). HEK-EM 293 cells were transfected with the cDNA of TSHR, LHCGR or FSHR using FuGENE 6 Transfection reagent (Roche Diagnostics) according to the manufacturer's protocol. Two days after transfection cells were passaged and grown in Dulbecco's modified Eagle's Medium (DMEM) supplemented with 10% fetal bovine serum, 100 units/ml penicillin and 10 μg/ml streptomycin (Life Technologies Inc.) and with hygromycin (250 μg/ml) as a selection marker. After 7 to 10 days hygromycin-resistant clones were selected, and after a few days of further growth submitted for a cAMP assay to identify clones that stably express the appropriate receptor. Cell Culture. Cells stably expressing TSHR, LHCGR or FSHR and parental HEK 293 cells were maintained in DMEM medium containing 10% FBS, 100 units/ml Penicillin, 100 μg/ml Streptomycin, at 37° C. in 5% CO2. For the cells lines stably expressing TSHR, LHCGR or FSHR, additional 250 μg/ml Hygromycin was added during the cell culture. The cells were seeded at a density of 3 to 4 million cells in a T175 flask containing 35 ml of media and were allowed to grow for 3 days to reach 80-90% confluence. A flask of HEK 293 cells at this density generally yielded 30 million cells total. Homogeneous Time Resolved Fluorescence (HTRF) cAMP Assay. Compounds were assayed using a HTRF cAMP detection kit (Cisbio, Bedford, Mass.) on both TSHR cell line and parental cell line. Briefly, 750 cells were plated in 2.5 μl/well of complete media (DMEM containing 10% FCS) in 1536 well solid bottom white plates and 20 nl/well compound in DMSO solution or controls was added. Following 30 minute incubation at room temperature, 2.5 μl/well of labeled d2 cAMP and 2.5 μl/well of anti-cAMP antibody (both diluted 1:20 in lysis buffer) were added to each well using a flying reagent dispenser (Aurora Discovery, San Diego). Plates were measured using the Envision plate reader (PerkinElmer, Boston, Mass.) with excitation at 330 nm and emissions of 615 nm and 660 nm. Compound Preparation. […] Data Analysis. […] The EC50 values of compounds were calculated from the concentration-response curves by nonlinear regression analysis using Prism software (GraphPad Software, San Diego, Calif.). Confirmatory cAMP Assay and Test for Selectivity Towards TSHR 50,000 cells/well were plated in complete media (DMEM containing 10% FCS) in 96 well plates. […] Following aspiration of the medium after incubation with compounds, cells were lysed using lysis buffer of the cAMP-Screen Direct™ System (Applied Biosystems, Cat # CSD200). The cAMP content of the cell lysate was determined using the manufacturer's protocol. […] Below is a List of Compounds that were Assayed via the Homogeneous Time Resolved Fluorescence (HTRF) cAMP Assay.

T1 sequence (P16473 21-764): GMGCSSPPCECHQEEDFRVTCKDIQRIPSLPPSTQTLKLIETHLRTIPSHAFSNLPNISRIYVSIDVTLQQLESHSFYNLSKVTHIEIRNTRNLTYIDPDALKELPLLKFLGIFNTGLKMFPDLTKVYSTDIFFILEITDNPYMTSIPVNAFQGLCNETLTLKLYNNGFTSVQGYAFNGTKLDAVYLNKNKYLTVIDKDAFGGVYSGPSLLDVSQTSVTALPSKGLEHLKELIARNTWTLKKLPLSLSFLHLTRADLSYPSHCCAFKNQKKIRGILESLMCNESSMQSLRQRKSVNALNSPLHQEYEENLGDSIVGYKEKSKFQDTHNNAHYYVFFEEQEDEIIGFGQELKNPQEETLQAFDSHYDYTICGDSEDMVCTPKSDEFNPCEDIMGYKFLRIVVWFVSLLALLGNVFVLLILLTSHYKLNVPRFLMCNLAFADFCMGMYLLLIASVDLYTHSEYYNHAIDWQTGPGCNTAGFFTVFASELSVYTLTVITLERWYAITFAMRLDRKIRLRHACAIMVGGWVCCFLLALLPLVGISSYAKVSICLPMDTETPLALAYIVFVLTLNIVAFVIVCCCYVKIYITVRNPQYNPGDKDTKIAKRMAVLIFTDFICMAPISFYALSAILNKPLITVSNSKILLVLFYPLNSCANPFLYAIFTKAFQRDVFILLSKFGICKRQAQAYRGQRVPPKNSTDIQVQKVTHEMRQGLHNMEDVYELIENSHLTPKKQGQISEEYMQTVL

| Structure (SMILES) | AC50 | Maximum Activity compared to TSH | AC50 (read-out: AC50) | Emax |
| --- | --- | --- | --- | --- |
| COc1ccc(C2Nc3ccccc3C(=O)N2Cc2ccccc2)cc1COc1ccc(F)cc1 (stereo not drawn) [Structure 272] | inactive | – | – | – |
| COc1ccc(C2Nc3ccccc3C(=O)N2Cc2ccco2)cc1COc1ccc(NC(C)=O)cc1 (stereo not drawn) [Structure 8] | – | 115.96 | 14.1 µM | – |
| CCC(=O)Nc1ccc(OCc2cc(C3Nc4ccccc4C(=O)N3Cc3ccccc3)ccc2OC)cc1 (stereo not drawn) [Structure 275] | – | 23.50 | 7.94 µM | – |
| COc1ccc(-c2nc3ccc(NC(=O)COC(C)=O)cc3c(=O)n2Cc2ccccc2)cc1COc1ccc(NC(C)=O)cc1 [Structure 261] | inactive | – | – | – |
| O=C(c1ccccc1O)N(Cc1ccccc1)Cc1cccs1 [Structure 287] | – | 30.00 | 22.4 µM | – |
| COc1ccc(C2Nc3ccccc3C(=O)N2Cc2ccc(-c3ccccc3)cc2)cc1COc1ccc(NC(C)=O)cc1 (stereo not drawn) [Structure 242] | inactive | – | – | – |
| COc1ccc(CN(Cc2ccccc2)C(=O)c2ccncc2)cc1COc1ccc(NC(C)=O)cc1 [Structure 117] | – | 87.19 | 44.7 µM | – |
| COc1ccc(C2Nc3ccccc3C(=O)N2Cc2ccccc2)cc1COc1ccc(C)cc1 (stereo not drawn) [Structure 232] | inactive | – | – | – |
| COc1ccc(-c2nc3ccccc3c(=O)n2Cc2ccccc2)cc1COc1ccc(NC(C)=O)cc1 [Structure 95] | – | 138.18 | 12.6 µM | – |
| COc1ccc(C2Nc3ccc(NC(C)=O)cc3C(=O)N2Cc2cccc(Cl)c2)cc1COc1ccc(NC(C)=O)cc1 (stereo not drawn) [Structure 10] | – | – | 7.94 µM | 122% |
| COc1ccc(CN2C(=O)N(c3ccccc3)C(=O)C2c2ccccc2)cc1COc1ccc(NC(C)=O)cc1 (stereo not drawn) [Structure 293] | inactive | – | – | – |
| COc1ccc(-c2nc3ccc(Cl)cc3c(=O)n2Cc2ccccc2)cc1COc1ccc(NC(C)=O)cc1 [Structure 181] | – | – | 3.98 µM | 22.5% |
| COc1ccc(C(=O)N(Cc2ccccc2)Cc2ccc(OC)c(COc3ccc(NC(C)=O)cc3)c2)cc1 [Structure 45] | – | 141.85 | 14.1 µM | – |
| COc1ccc(O)c(-c2nc3ccccc3c(=O)n2Cc2ccccc2)c1 [Structure 211] | inactive | – | – | – |
| COc1ccc(-c2nc3ccccc3c(=O)n2Cc2ccccc2)cc1CNc1ccc(NC(C)=O)cc1 [Structure 173] | – | – | 15.8 µM | 30% |
| COc1ccc(C2Nc3ccccc3C(=O)N2Cc2ccccc2)cc1COc1cccc(Cl)c1 (stereo not drawn) [Structure 278] | inactive | – | – | – |
| COc1ccc(C2Oc3ccccc3C(=O)N2Cc2ccccc2)cc1COc1ccc(NC(C)=O)cc1 (stereo not drawn) [Structure 35] | – | 115.01 | 12.6 µM | – |
| COc1ccc(C2Nc3ccccc3C(=O)N2Cc2ccccn2)cc1COc1ccc(NC(C)=O)cc1 (stereo not drawn) [Structure 115] | – | 66.81 | 39.8 µM | – |
| COc1ccc(C2Nc3ccccc3C(=O)N2Cc2ccco2)cc1COc1ccc(NC(C)=O)cc1 (stereo not drawn) [Structure 1] | – | 159.24 | 12.6 µM | – |
| COc1ccc(CN(Cc2ccccc2)C(=O)COC(C)=O)cc1COc1ccc(NC(C)=O)cc1 [Structure 130] | – | 53.70 | 50.1 µM | – |
| O=C(c1ccccc1O)N(Cc1cccs1)Cc1cccs1 [Structure 277] | inactive | – | – | – |
| COc1ccc(C2Nc3ccccc3C(=O)N2Cc2ccco2)cc1COc1ccc([N+](=O)[O-])cc1 (stereo not drawn) [Structure 289] | inactive | – | – | – |
| COc1ccc(CN(Cc2ccccc2)C(=O)c2ccccc2)cc1COc1ccc(NC(C)=O)cc1 [Structure 98] | – | 140.53 | 14.1 µM | – |
| COc1ccc(CN(Cc2ccccc2)C(=O)c2ccccc2O)cc1 [Structure 189] | – | 24.00 | 22.4 µM | – |
| CC(=O)Nc1ccc(OCc2cccc(C3Nc4ccccc4C(=O)N3Cc3ccco3)c2)cc1 (stereo not drawn) [Structure 144] | inactive | – | – | – |

| Structure (SMILES) | AC50 | Maximum Activity compared to TSH | AC50 (read-out: AC50) | Emax |
| --- | --- | --- | --- | --- |
| COc1ccc(C2Nc3ccccc3C(=O)N2Cc2ccccc2OC)cc1COc1ccc(NC(C)=O)cc1 (stereo not drawn) [Structure 198] | – | – | 20 µM | 18% |
| COc1ccc(C2Nc3ccccc3C(=O)N2Cc2ccc(Cl)cc2)cc1COc1ccc(NC(C)=O)cc1 (stereo not drawn) [Structure 72] | – | – | 3.98 µM | 55.2% |
| COc1ccc(C2Nc3ccc(Cl)cc3C(=O)N2Cc2ccccc2)cc1COc1ccc(C(N)=O)cc1 (stereo not drawn) [Structure 187] | inactive | – | – | – |
| COc1ccc(CN(Cc2ccccc2)C(=O)Nc2ccccc2)cc1COc1ccc(NC(C)=O)cc1 [Structure 135] | – | 48.07 | – | – |
| COc1ccc(C2NC(=O)c3ccccc3N2)cc1COc1ccc(NC(C)=O)cc1 (stereo not drawn) [Structure 233] | inactive | – | – | – |
| COc1ccc(CN(Cc2ccccc2)C(=O)Nc2ccccc2)cc1COc1ccc(NC(C)=O)cc1 [Structure 215] | – | 20.00 | – | – |
| COc1ccc(O)c(C2Nc3ccccc3C(=O)N2Cc2ccccc2)c1 (stereo not drawn) [Structure 260] | inactive | – | – | – |
| COc1ccc(C=O)cc1COc1ccc(NC(C)=O)cc1 [Structure 184] | inactive | – | – | – |
| COc1ccc(C2NC(=O)c3ccccc3N2)cc1COc1ccc(NC(C)=O)cc1 (stereo not drawn) [Structure 137] | inactive | – | – | – |
| COc1ccc(C2Nc3ccc(Cl)cc3C(=O)N2Cc2ccccc2)cc1COc1ccc(NC(C)=O)cc1 (stereo not drawn) [Structure 119] | – | 56.31 | 14.1 µM | – |
| COc1ccc(C(=O)C2C(=O)C(=O)N(Cc3ccco3)C2c2cccs2)cc1 (stereo not drawn) [Structure 160] | – | – | 50.1 µM | 28% |
| COc1ccc(CN(Cc2ccccc2)C(=O)c2ccno2)cc1COc1ccc(NC(C)=O)cc1 [Structure 248] | – | – | 70.8 µM | 32% |
| COc1ccc(C(=O)N(Cc2ccccc2)Cc2cccs2)c(O)c1 [Structure 92] | – | 133.48 | 31.6 µM | – |
| COc1ccc(C2Nc3ccccc3C(=O)N2Cc2ccco2)cc1COc1ccc(NC(C)=O)cc1 (stereo not drawn) [Structure 14] | – | 104.66 | 11.2 µM | – |
| COc1ccc(C2Nc3ccccc3C(=O)N2Cc2cccc(Cl)c2)cc1COc1ccc(NC(C)=O)cc1 (stereo not drawn) [Structure 50] | – | 70.37 | 2.82 µM | – |
| COc1ccc(CN2C(=O)N(c3ccccc3)C(=O)C2c2ccccc2)cc1COc1ccc(NC(C)=O)cc1 (stereo not drawn) [Structure 247] | inactive | – | – | – |
| COc1ccc(CN(Cc2ccccc2)C(=O)c2ccc(OC)cc2O)cc1 [Structure 124] | – | 62.73 | 31.6 µM | – |
| COc1ccc(C(=O)N(Cc2ccccc2)Cc2ccccc2)cc1COc1ccc(NC(C)=O)cc1 [Structure 167] | – | 24.50 | 14.1 µM | – |
| O=C1CC(c2ccco2)CC2=C1C(c1ccncc1)n1nc(C(F)(F)F)nc1N2 (stereo not drawn) [Structure 183] | inactive | – | – | – |
| COc1ccc(C2Nc3ccccc3C(=O)N2Cc2cccc(C(F)(F)F)c2)cc1COc1ccc(NC(C)=O)cc1 (stereo not drawn) [Structure 27] | – | 123.52 | 4.47 µM | – |
| COc1ccc(C2Nc3ccccc3C(=O)N2Cc2ccco2)cc1COc1c(C)cccc1C (stereo not drawn) [Structure 141] | inactive | – | – | – |
| CC(=O)Nc1cccc(OCc2cccc(C3Nc4ccccc4C(=O)N3Cc3ccco3)c2)c1 (stereo not drawn) [Structure 149] | inactive | – | – | – |
| COc1ccc(C2Nc3ccccc3C(=O)N2Cc2ccco2)cc1COc1ccc([N+](=O)[O-])cc1 (stereo not drawn) [Structure 290] | inactive | – | – | – |
| COc1ccc(-c2nc3ccc(Cl)cc3c(=O)n2Cc2ccccc2)cc1COc1ccc(NC(C)=O)cc1 [Structure 206] | inactive | – | – | – |

Source: patent US9458141B2, “Low molecular weight thyroid stimulating hormone receptor (TSHR) agonists” (The United States of America, as represented by the …, priority 2008, dated 2016)
